Data on 4 compounds can be found in paper PMC8443647, “Hybrid derivative of cathelicidin and human beta defensin-2 against Gram-positive bacteria: A novel approach for the treatment of bacterial keratitis” (Scientific Reports, 2021).

Where two headings read alike, the source gives them in different places. Bridge positions count the residues as written; N and C are the ends. Ends that are not written are not given here. Peptide text beside a SMILES is read from it.

One series deals with MRSA-OS. Kind of series: microbe, parasite or virus in culture. The format is cell-based, Staphylococcus aureus. Conditions: 24 h. The source says: (§1) A range of Gram-positive and Gram-negative laboratory- and clinical-strain bacteria were used for the experiments. These included laboratory-strain methicillin-sensitive S. aureus (MSSA; including SH1000 and ATCC SA29213), laboratory-strain MRSA (ATCC MRSA43300), clinical-strain MRSA (MRSA-OS; an IK isolate), laboratory-strain methicillin-sensitive Staphylococcus epidermidis (MSSE; ATCC SE12228), laboratory invasive-strain P. aeruginosa (PAO1-L), and clinical cytotoxic-strain P. aeruginosa (PA-OS; an IK isolate).
(§2) In vitro antimicrobial efficacy of the antibiotics and designed HDPs was determined using an established MIC assay with broth microdilution method approved by the Clinical and Laboratory Standards Institute (CLSI)[64]. Briefly, the microorganisms were cultured on Tryptone Soya Agar (TSA) and incubated overnight for 18–21 h at 37 °C. Bacterial inoculums were subsequently prepared using the direct colony suspension method. Three to five bacterial colonies were obtained from the agar plate and inoculated into an Eppendorf tube containing 1 ml of cation-adjusted Muller-Hinton broth (caMHB), consisting of 20–25 mg/L calcium ions (Ca^2+) and 10–12.5 mg/L magnesium ions (Mg^2+). The bacterial suspension was adjusted to achieve a turbidity equivalent to 0.1 OD600 or 0.5 MacFarland, containing ~ 1.5 × 10^8 colony-forming unit (CFU)/ml, which was then further diluted in 1:150 in caMHB to reach a final bacterial concentration of ~ 1 × 10^6 colony forming units (CFU)/ml. Each treatment (peptide or antibiotic) was prepared in 1:2 serial dilution in 96-well polypropylene microplates (with a final treatment volume of 50 μl per well), followed by the addition of 50 μl of 1 × 10^6 CFU/ml bacteria into each well (with a final bacterial concentration of 5 × 10^5 CFU/ml).

Another series has as its system S. aureus SH1000. Put plainly: microbe, parasite or virus in culture. It is filed as cell-based, Staphylococcus aureus.
Description: as §1, §2

For another series, the system named is P. aeruginosa PAO1-L. Put plainly: microbe, parasite or virus in culture. It is filed as cell-based.
Description: as §1, §2

In series [1] the test system is human corneal epithelial cells (HCE-2). Put plainly: cells. The conditions noted are these: 3 h. The format is cell-based. The protocol: (§3) Cell viability and cytotoxicity of antibiotics and peptides were determined against human corneal epithelial cells (HCE-2, CRL-11135, ATCC, Manassas, Virginia, USA) using cell-counting-kit-8 (CCK-8) assay (Sigma Aldrich, Merck Life Science UK Limited, Dorset, UK) and lactate dehydrogenase (LDH) assay (ThermoFisher Scientific, UK), respectively, as per manufacturer’s guidelines. HCE-2 cells were cultured and seeded into a 96-well plate at a density of 7.5 × 10^3 cells/well and allowed to attach overnight and grew to 80–90% confluency in keratinocyte serum free medium (KSFM) supplemented with human recombinant epidermal growth factor, bovine pituitary extract, hydrocortisone, and insulin. Once the confluency reached 80–90%, the cells were incubated with treatment for 3 h before OD450 measurement was taken using BMG Clariostar microplate reader (BMG Labtech Ltd., Aylesbury, UK). Appropriate controls were used, including 0.1% Triton X-100 as positive control and KSFM as negative control. Cell viability was calculated using the following formula: [([…]) × 100; I = intensity] and cytotoxicity was calculated using the following formula: [((Itreatment – INC)/(IPC – INC)) × 100].

The nature of the next series: in vitro. The conditions noted are these: human. The format is cell-based, human. The protocol: as §3
Series [2] has as its system human corneal epithelial cells (HCE-2). Kind of series: in vitro. The format is cell-based. How it is done:
as §3

Another series concerns P. aeruginosa PA-OS. Kind of series: microbe, parasite or virus in culture. The format is cell-based. The conditions noted are these: 24 h.
Description: as §1, §2

In series [3] the test system is Gram-positive or Gram-negative bacteria. Put plainly: MIC assay, all tested organisms summarised. Conditions: summary over the organisms tested, without salt. The format is cell-based.
Description: as §1
In vitro antimicrobial efficacy of the antibiotics and designed HDPs was determined using an established MIC assay with broth microdilution method approved by the Clinical and Laboratory Standards Institute (CLSI)[64]. Briefly, the microorganisms were cultured on Tryptone Soya Agar (TSA) and incubated overnight for 18–21 h at 37 °C. Bacterial inoculums were subsequently prepared using the direct colony suspension method. Three to five bacterial colonies were obtained from the agar plate and inoculated into an Eppendorf tube containing 1 ml of cation-adjusted Muller-Hinton broth (caMHB), consisting of 20–25 mg/L calcium ions (Ca^2+) and 10–12.5 mg/L magnesium ions (Mg^2+). […]

Setting [4] is: 0 mM NaCl, caMHB, read-out: MIC.
The mark [5] stands for this setting: 0 mM NaCl, caMHB, 24 h, read-out: MIC.
Setting [6] is: 0 mM NaCl, caMHB, 24 h, listed as LL-37.

Regarding `CC[C@H](C)[C@H](NC(=O)[C@H](CCCNC(=N)N)NC(=O)[C@H](CCC(N)=O)NC(=O)[C@@H](NC(=O)[C@@H](NC(=O)[C@H](CCCNC(=N)N)NC(=O)[C@@H](N)CCCCN)[C@@H](C)CC)C(C)C)C(=O)N[C@@H](CCCCN)C(=O)N[C@@H](CC(=O)O)C(=O)N[C@@H](Cc1ccccc1)C(=O)N[C@@H](CC(C)C)C(=O)N[C@@H](CCCNC(=N)N)C(=O)N[C@@H](CCCCN)C(=O)N[C@@H](CS)C(=O)N[C@@H](CS)C(=O)N[C@@H](CCCCN)C(=O)N[C@@H](CCCCN)C(=O)N1CCC[C@H]1C(=O)O` [CaD2, KRIVQRIKDF LRKCCKKP] (H-KRIVQRIKDFLRKCCKKP-OH; N-terminus and C-terminus assumed), the MIC is greater than 200 µg/mL in the series with MRSA-OS (-OS); greater than 200 µg/mL against S. aureus SH1000 (SH1000, 24 h); greater than 200 µg/mL against P. aeruginosa PAO1-L (PAO1, 24 h). In addition, the “IC50 (concentration causing 50% inhibition of cell viability)” value in series [1] is greater than 200 µg/mL. The compound further registered a CC50 at 3 h in “in vitro” greater than 200 µg/mL. In series [2], the “Lmax (%): percentage of cytotoxicity at 200 µg/ml” value is 2.9 (2.2) %.

For the compound `CC[C@H](C)[C@H](NC(=O)[C@H](CCCNC(=N)N)NC(=O)[C@H](CCC(N)=O)NC(=O)[C@@H](NC(=O)[C@@H](NC(=O)[C@H](CCCNC(=N)N)NC(=O)[C@@H](N)CCCCN)[C@@H](C)CC)C(C)C)C(=O)N[C@@H](CCCCN)C(=O)N[C@@H](CC(=O)O)C(=O)N[C@@H](Cc1c[nH]c2ccccc12)C(=O)N[C@@H](CC(C)C)C(=O)N[C@@H](CCCNC(=N)N)C(=O)N[C@@H](CCCCN)C(=O)N[C@@H](CS)C(=O)N[C@@H](CS)C(=O)N[C@@H](CCCCN)C(=O)N[C@@H](CCCCN)C(=O)N1CCC[C@H]1C(=O)O` [CaD22, KRIVQRIKDW LRKCCKKP] (H-KRIVQRIKDWLRKCCKKP-OH; N-terminus and C-terminus assumed), the MIC in the series on MRSA-OS (setting [4]) is greater than 87.0 µM; in the series with MRSA-OS (-OS), greater than 200 µg/mL; in the series on S. aureus SH1000 (setting [5]), 43.5 µM; in the series with S. aureus SH1000 (150 mM NaCl, caMHB, 24 h, read-out: MIC) it was greater than 87.0 µM; in the series with P. aeruginosa PA-OS (setting [4]), 87.0 µM; in the series with P. aeruginosa PA-OS (PA-OS), 200 µg/mL. For the same compound, the MIC with P. aeruginosa PAO1-L (setting [5]) was found to be 87.0 µM; against P. aeruginosa PAO1-L (PAO1, 24 h), 200 µg/mL. Further, in series [1], the “IC50 (concentration causing 50% inhibition of cell viability)” value was greater than 200 µg/mL. Further, the “Imax (%): percentage of inhibition of cell viability at 200 µg/ml” value in series [1] (HCE-2, CCK-8 assay, 200 µg/ml, mean (SD)) was 34.3 (8.2) %.

For the compound `CC[C@H](C)[C@H](NC(=O)[C@H](CCCCN)NC(=O)[C@H](CCC(=O)O)NC(=O)[C@H](CCCCN)NC(=O)[C@H](CO)NC(=O)[C@H](CCCCN)NC(=O)[C@H](CCCNC(=N)N)NC(=O)[C@H](Cc1ccccc1)NC(=O)[C@H](Cc1ccccc1)NC(=O)[C@H](CC(=O)O)NC(=O)CNC(=O)[C@H](CC(C)C)NC(=O)[C@@H](N)CC(C)C)C(=O)NCC(=O)N[C@@H](CCCCN)C(=O)N[C@@H](CCC(=O)O)C(=O)N[C@@H](Cc1ccccc1)C(=O)N[C@@H](CCCCN)C(=O)N[C@@H](CCCNC(=N)N)C(=O)N[C@H](C(=O)N[C@H](C(=O)N[C@@H](CCC(N)=O)C(=O)N[C@@H](CCCNC(=N)N)C(=O)N[C@H](C(=O)N[C@@H](CCCCN)C(=O)N[C@@H](CC(=O)O)C(=O)N[C@@H](Cc1ccccc1)C(=O)N[C@@H](CC(C)C)C(=O)N[C@@H](CCCNC(=N)N)C(=O)N[C@@H](CC(N)=O)C(=O)N[C@@H](CC(C)C)C(=O)N[C@H](C(=O)N1CCC[C@H]1C(=O)N[C@@H](CCCNC(=N)N)C(=O)N[C@H](C(=O)N[C@@H](CCC(=O)O)C(=O)N[C@@H](CO)C(=O)O)[C@@H](C)O)C(C)C)[C@@H](C)CC)C(C)C)[C@@H](C)CC` [LL37, LLGDFFRKSKEKIGKEFKRIVQRIKDFLRNLVPRTES, reference compound], the MIC against MRSA-OS (0 mM NaCl, caMHB) worked out at 25 µg/mL; in the series on MRSA-OS (0 mM NaCl, caMHB, listed as LL-37), 25 µg/mL; in the series on MRSA-OS (setting [4]), 5.6 µM; in the series with S. aureus SH1000 (0 mM NaCl, caMHB, 24 h) it was 25 µg/mL; against S. aureus SH1000 (setting [6]) it was 25.0 µg/mL; in the series on S. aureus SH1000 (setting [5]), 5.6 µM. Also, the MIC against P. aeruginosa PAO1-L (0 mM NaCl, caMHB, 24 h) was 50 µg/mL; with P. aeruginosa PAO1-L (setting [6]) it was 50 µg/mL; in the series with P. aeruginosa PAO1-L (setting [5]), 11.1 µM; in series [3], 25 to 50 µg/mL.

For “GIGDPVTCLKSGAICHPVFCPRRYKQIGTCGLPGTKCCKKP (disulfide 8-37, 15-30, 20-38 (inferred)) [HBD2, GIGDPVTCLKSGAICHPVFCPRRYKQIGTCGLPGTKCCKKP]”, the MIC in series [3] worked out at 100 µg/mL.

What is called CC50 is the concentration that lowers cell viability or growth by half.
